Measured values taken from article PMC3914206.

Tests used:
Type in all cases: binding
Settings in all cases: Compound Concentration 10 µM
panel of 442 kinases [1] = target: T1, panel of 442 kinases (Homo sapiens, UniProt P15056, V600E)
T1 construct: purchased KINOMEscan
Text: (§1) We assessed the selectivity of members of this scaffold using the KINOMEscan methodology across a near comprehensive panel of 442 kinases [[18,27]].

panel of 442 kinases [2] = target: T2, panel of 442 kinases (Homo sapiens, UniProt P17612)
T2 construct: purchased KINOMEscan
Text: as §1

panel of 442 kinases [3] = target: T3, panel of 442 kinases (Homo sapiens, UniProt P24941)
T3 construct: purchased KINOMEscan
Text: as §1

panel of 442 kinases [4] = target: T4, panel of 442 kinases (Plasmodium falciparum, UniProt P61075)
T4 construct: purchased KINOMEscan
T4 sequence (P61075 whole entry): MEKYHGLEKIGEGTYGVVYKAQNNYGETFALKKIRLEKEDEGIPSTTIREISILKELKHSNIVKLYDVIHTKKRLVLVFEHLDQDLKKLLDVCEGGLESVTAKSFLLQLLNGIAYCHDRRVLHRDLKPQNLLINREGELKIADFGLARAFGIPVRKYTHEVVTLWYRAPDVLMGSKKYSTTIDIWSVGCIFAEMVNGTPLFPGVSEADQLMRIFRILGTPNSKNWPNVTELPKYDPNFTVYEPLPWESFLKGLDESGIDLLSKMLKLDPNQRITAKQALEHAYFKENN
Text: as §1

T1 sequence (P15056 whole entry V600E): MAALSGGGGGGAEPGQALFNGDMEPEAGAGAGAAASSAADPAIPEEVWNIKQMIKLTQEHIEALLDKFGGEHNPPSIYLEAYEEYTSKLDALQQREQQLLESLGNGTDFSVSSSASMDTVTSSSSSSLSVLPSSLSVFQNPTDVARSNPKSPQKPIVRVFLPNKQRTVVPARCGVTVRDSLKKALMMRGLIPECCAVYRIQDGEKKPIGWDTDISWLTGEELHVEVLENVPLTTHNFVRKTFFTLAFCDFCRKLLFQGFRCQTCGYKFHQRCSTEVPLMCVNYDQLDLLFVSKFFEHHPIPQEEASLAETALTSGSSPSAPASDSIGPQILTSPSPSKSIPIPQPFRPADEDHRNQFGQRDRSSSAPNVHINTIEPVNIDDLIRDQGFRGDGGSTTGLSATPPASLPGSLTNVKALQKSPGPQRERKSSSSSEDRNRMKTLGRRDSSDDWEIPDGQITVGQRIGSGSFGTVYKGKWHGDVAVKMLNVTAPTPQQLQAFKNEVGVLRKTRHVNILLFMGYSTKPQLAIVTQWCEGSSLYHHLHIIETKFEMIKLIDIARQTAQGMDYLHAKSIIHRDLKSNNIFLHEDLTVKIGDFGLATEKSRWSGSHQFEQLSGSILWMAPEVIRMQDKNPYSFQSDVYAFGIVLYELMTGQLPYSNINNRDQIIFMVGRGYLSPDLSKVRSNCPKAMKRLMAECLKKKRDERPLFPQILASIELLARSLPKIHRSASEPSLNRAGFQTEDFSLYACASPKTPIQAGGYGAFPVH

| SMILES | KINOMEscan: BRAF(V600E) (panel of 442 kinases [1]) | KINOMEscan: PKAC-alpha (panel of 442 kinases [2]) | KINOMEscan: CDK2 (panel of 442 kinases [3]) | KINOMEscan: PFPK5(P.falciparum) (panel of 442 kinases [4]) |
| --- | --- | --- | --- | --- |
| COc1cc(C(=O)N2CCC(N3CCN(C)CC3)CC2)ccc1Nc1ncc2c(n1)N(C)c1ccccc1C(=O)N2C [15 (LRRK2-IN-1)] | 100 | 100 | 100 | 100 |
| COc1cc(C(=O)N2CCC(N3CCN(C)CC3)CC2)ccc1Nc1ncc2c(n1)N1CCc3cccc(c31)C(=O)N2C [Compound 24] |  |  | 95 | 92 |
| COc1cc(C(=O)N2CCC(N3CCN(C)CC3)CC2)ccc1Nc1ncc2c(n1)N(C1CCCC1)c1ccccc1C(=O)N2C [Compound 25, 11-cyclopentyl-2-((2-methoxy-4-(4-(4-methylpiperazin-1-yl)piperidine-1-carbonyl)phenyl)amino)-5-methyl-5H-benzo[e]pyrimido[5,4-b][1,4]diazepin-6(11H)-one] | 100 | 100 | 96 | 85 |
| CCOc1cc(C(=O)N2CCC(N3CCN(C)CC3)CC2)ccc1Nc1ncc2c(n1)N(C1CCCC1)c1ccccc1C(=O)N2C [Compound 26] | 100 | 100 | 100 | 100 |
